Results published in ChEMBL document CHEMBL3991601, “The target landscape of clinical kinase drugs” (Science, 2017).
Calls of active or inactive are those of the source. Rule as the data show it, for most assays here: actives have a measured Kd and inactives only a lower limit.

Assays:
[1] = molecular target: Serine/threonine-protein kinase N2 (Homo sapiens, UniProt Q16513)
[2] = molecular target: T1, STE20-related kinase adapter protein alpha (Homo sapiens, UniProt Q7RTN6)
T1 sequence (Q7RTN6 whole entry): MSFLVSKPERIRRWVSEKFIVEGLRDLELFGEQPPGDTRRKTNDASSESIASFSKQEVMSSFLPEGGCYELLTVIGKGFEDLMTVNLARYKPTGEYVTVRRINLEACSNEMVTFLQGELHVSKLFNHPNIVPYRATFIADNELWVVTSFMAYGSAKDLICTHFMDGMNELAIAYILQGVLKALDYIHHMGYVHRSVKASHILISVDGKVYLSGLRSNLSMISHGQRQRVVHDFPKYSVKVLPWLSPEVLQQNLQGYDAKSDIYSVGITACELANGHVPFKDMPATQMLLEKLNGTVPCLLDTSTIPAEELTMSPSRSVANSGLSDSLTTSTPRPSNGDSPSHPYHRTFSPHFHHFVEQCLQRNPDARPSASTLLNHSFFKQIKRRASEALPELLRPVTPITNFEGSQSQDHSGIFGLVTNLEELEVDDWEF

[3] = molecular target: T2, Mitogen-activated protein kinase 15 (Homo sapiens, UniProt Q8TD08)
T2 sequence (Q8TD08 whole entry): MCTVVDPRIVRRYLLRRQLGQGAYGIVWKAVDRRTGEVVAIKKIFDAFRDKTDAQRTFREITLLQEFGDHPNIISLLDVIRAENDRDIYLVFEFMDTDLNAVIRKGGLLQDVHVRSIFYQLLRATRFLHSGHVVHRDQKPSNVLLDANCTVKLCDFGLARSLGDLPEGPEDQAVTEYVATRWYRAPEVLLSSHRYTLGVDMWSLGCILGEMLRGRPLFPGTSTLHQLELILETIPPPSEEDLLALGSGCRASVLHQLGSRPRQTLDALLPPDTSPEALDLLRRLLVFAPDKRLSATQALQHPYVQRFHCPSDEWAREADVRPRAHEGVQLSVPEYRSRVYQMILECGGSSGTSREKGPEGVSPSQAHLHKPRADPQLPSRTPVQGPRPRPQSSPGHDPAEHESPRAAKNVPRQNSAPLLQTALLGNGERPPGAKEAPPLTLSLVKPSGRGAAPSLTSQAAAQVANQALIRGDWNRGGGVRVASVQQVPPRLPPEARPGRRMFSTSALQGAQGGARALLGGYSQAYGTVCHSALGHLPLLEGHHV

[4] = molecular target: Maternal embryonic leucine zipper kinase (Homo sapiens, UniProt Q14680)
[5] = molecular target: Macrophage-stimulating protein receptor (Homo sapiens, UniProt Q04912)
[6] = molecular target: T3, Cysteine--tRNA ligase, cytoplasmic (Homo sapiens, UniProt P49589)
T3 sequence (P49589 whole entry): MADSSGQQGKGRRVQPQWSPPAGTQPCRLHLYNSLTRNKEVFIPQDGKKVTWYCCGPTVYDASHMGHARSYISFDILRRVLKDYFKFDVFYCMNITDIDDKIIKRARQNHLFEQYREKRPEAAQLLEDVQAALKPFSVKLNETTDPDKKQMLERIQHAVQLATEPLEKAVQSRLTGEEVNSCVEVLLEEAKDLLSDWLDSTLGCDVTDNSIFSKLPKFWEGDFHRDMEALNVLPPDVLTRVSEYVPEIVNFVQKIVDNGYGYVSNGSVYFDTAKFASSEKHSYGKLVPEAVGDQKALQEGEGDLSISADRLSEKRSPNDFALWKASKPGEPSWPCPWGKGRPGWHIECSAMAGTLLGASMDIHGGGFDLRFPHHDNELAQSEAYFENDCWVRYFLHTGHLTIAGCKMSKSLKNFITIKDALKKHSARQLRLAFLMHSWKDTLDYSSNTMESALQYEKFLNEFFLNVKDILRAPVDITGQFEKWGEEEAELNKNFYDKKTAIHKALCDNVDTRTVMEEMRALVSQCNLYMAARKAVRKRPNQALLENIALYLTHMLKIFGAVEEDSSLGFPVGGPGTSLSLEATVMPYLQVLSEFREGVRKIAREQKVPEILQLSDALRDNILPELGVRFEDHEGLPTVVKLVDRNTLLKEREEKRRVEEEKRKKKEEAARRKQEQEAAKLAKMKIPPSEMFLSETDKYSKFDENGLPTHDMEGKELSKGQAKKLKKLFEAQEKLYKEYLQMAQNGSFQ

[7] = molecular target: Serine/threonine-protein kinase PAK 2 (Homo sapiens, UniProt Q13177)
[8] = molecular target: T4, Ribosyldihydronicotinamide dehydrogenase [quinone] (Homo sapiens, UniProt P16083)
T4 sequence (P16083 whole entry): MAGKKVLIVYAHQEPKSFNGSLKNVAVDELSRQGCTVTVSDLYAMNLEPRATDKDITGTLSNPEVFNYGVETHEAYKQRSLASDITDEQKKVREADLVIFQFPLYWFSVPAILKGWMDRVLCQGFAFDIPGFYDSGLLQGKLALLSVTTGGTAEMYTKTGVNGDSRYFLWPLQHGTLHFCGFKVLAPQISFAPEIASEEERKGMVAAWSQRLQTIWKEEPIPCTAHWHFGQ

[9] = molecular target: T5, Serine/threonine-protein kinase Chk1 (Homo sapiens, UniProt O14757)
T5 sequence (O14757 whole entry): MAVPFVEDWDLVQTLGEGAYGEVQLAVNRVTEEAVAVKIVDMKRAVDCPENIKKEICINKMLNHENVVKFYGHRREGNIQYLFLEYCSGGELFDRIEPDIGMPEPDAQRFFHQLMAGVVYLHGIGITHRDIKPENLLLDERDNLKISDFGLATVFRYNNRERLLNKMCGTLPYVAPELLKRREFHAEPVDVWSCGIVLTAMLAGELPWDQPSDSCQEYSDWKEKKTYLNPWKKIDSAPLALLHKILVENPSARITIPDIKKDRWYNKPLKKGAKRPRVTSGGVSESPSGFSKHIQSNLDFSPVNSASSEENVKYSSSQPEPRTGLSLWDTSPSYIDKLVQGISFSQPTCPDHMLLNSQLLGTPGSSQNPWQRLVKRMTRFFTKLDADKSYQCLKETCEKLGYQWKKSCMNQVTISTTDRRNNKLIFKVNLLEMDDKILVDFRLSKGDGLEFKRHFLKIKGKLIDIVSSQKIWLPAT

[10] = molecular target: Eukaryotic translation initiation factor 2-alpha kinase 1 (Homo sapiens, UniProt Q9BQI3)
Also: in the data inactive means no Kd found up to 30 µM.

Sequence of Serine/threonine-protein kinase N2 (Q16513 whole entry): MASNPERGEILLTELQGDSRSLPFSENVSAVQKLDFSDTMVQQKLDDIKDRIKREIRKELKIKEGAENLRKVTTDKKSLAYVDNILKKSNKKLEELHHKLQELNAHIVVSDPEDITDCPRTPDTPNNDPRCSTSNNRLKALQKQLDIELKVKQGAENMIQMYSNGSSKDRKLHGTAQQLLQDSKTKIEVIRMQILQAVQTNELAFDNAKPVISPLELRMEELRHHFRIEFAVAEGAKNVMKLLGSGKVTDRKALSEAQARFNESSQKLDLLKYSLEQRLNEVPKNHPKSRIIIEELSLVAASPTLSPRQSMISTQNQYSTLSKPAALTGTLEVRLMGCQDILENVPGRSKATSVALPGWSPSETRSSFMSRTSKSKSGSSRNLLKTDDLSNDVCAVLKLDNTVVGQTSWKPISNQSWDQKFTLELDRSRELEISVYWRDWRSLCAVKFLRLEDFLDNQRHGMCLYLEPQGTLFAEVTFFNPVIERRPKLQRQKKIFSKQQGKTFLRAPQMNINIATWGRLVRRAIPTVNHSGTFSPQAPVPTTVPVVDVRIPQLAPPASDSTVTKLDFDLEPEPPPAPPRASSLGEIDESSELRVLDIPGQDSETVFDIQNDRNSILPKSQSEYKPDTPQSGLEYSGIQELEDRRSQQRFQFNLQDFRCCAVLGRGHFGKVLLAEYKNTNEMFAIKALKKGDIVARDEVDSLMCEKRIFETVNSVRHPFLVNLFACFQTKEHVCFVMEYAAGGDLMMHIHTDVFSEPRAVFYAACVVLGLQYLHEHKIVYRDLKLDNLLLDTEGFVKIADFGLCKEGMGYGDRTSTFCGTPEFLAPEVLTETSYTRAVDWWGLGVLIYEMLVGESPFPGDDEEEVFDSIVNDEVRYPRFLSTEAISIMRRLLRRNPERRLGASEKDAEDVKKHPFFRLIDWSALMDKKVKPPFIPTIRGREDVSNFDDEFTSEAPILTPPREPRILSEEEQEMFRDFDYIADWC
Sequence of Serine/threonine-protein kinase PAK 2 (Q13177 whole entry): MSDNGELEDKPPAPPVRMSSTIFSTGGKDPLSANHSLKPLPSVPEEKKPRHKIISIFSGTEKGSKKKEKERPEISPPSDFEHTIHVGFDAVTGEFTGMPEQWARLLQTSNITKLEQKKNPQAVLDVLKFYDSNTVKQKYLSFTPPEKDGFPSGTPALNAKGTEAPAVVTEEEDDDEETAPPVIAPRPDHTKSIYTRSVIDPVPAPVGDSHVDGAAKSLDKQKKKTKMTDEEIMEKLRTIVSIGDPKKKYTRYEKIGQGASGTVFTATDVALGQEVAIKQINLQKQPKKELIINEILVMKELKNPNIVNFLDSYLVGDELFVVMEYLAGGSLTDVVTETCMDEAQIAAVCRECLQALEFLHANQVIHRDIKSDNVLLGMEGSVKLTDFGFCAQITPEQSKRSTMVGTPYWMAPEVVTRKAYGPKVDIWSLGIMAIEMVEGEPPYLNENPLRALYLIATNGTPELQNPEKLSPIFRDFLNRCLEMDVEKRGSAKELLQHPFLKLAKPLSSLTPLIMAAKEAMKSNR
Sequence of Eukaryotic translation initiation factor 2-alpha kinase 1 (Q9BQI3 whole entry): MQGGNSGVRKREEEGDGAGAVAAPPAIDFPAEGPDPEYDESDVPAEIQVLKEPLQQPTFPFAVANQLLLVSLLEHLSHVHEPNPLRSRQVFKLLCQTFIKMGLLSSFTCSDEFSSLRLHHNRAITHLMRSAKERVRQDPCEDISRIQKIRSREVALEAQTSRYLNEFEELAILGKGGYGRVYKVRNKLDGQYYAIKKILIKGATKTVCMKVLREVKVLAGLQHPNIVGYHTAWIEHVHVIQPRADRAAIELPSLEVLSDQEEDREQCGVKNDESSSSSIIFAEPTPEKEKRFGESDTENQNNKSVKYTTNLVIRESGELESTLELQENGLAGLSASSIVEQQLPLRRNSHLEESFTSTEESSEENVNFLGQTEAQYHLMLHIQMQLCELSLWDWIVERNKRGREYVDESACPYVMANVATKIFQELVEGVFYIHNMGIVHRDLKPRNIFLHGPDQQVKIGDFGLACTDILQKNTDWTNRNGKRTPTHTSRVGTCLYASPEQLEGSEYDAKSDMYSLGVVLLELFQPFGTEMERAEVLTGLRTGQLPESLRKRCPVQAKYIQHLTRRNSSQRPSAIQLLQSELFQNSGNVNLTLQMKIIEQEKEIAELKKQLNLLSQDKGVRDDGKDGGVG
Sequence of Macrophage-stimulating protein receptor (Q04912 25-304 limits assumed): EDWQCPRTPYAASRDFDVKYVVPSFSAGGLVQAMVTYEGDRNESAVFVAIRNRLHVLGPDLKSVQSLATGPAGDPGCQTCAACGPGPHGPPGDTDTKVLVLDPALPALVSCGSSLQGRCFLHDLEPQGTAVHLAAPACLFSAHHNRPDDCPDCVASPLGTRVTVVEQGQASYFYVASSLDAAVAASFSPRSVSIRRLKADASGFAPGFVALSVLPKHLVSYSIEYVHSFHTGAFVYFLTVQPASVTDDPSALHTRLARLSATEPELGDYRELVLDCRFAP
Sequence of Macrophage-stimulating protein receptor (Q04912 310-1400 limits assumed): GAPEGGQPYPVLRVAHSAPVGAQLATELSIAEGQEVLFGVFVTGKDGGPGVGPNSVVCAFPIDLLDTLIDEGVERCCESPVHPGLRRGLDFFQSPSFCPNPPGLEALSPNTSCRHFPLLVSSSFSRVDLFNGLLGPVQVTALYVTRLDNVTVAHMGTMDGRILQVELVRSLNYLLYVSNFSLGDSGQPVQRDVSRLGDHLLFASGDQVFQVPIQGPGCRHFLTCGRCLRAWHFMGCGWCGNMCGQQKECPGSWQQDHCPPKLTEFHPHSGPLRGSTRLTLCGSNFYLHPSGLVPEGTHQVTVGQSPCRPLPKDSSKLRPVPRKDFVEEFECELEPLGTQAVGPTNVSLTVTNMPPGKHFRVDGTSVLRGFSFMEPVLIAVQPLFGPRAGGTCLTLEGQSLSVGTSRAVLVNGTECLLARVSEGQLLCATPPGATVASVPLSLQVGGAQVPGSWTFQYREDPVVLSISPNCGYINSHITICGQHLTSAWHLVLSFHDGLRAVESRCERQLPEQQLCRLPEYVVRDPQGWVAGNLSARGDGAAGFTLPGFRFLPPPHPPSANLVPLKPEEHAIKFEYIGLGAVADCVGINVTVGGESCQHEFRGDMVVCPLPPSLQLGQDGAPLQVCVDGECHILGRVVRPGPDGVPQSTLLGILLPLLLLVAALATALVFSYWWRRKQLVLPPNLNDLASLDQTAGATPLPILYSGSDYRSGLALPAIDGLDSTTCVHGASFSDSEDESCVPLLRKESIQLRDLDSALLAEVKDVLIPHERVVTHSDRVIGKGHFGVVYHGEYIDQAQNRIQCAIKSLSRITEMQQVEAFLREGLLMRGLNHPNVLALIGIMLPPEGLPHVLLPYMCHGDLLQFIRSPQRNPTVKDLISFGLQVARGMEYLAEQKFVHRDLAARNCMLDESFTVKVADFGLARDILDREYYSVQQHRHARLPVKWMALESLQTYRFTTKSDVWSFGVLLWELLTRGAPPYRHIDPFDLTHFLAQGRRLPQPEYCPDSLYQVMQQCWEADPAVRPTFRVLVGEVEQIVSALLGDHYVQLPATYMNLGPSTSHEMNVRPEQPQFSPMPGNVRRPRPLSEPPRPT
Sequence of Maternal embryonic leucine zipper kinase (Q14680 whole entry): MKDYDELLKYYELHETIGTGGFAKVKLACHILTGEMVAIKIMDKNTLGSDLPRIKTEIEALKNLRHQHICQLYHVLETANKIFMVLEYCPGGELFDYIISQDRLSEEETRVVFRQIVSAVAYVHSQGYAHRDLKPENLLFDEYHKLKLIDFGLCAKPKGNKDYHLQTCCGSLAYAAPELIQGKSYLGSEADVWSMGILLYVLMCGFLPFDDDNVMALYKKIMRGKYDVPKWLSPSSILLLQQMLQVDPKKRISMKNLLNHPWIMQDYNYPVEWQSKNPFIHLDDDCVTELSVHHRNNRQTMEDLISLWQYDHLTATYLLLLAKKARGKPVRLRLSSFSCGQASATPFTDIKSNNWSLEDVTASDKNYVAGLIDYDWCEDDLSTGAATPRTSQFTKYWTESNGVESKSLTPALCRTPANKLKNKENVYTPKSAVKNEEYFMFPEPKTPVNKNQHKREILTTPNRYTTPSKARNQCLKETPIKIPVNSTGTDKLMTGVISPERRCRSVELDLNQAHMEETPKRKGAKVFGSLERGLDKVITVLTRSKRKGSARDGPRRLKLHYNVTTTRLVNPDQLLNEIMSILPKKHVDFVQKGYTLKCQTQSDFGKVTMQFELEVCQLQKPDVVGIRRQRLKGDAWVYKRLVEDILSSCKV

SMILES | Kd [1] | Kd [2] | Kd [4] | Kd [5] | Kd [6] | Kd [7] | Kd [8] | Kd [9] | Kd [10] | Kd [3]
CCS(=O)(=O)N1CC(CC#N)(n2cc(-c3ncnc4[nH]ccc34)cn2)C1 [BARICITINIB] | – | > 30 µM (inactive) | > 30 µM (inactive) | > 30 µM (inactive) | > 30 µM (inactive) | > 30 µM (inactive) | > 30 µM (inactive) | > 30 µM (inactive) | 0.335 µM (active) | > 30 µM (inactive)
CN1N=C(N)c2cn([C@@H]3O[C@H](COP(=O)(O)O)[C@@H](O)[C@H]3O)c3ncnc1c23 [TRICIRIBINE PHOSPHATE] | > 30 µM (inactive) | – | > 30 µM (inactive) | > 30 µM (inactive) | > 30 µM (inactive) | > 30 µM (inactive) | > 30 µM (inactive) | > 30 µM (inactive) | – | > 30 µM (inactive)
CNC(=O)c1cc(Oc2ccc(NC(=O)Nc3ccc(Cl)c(C(F)(F)F)c3)c(F)c2)ccn1 [REGORAFENIB] | > 30 µM (inactive) | > 30 µM (inactive) | > 30 µM (inactive) | > 30 µM (inactive) | > 30 µM (inactive) | > 30 µM (inactive) | > 30 µM (inactive) | > 30 µM (inactive) | > 30 µM (inactive) | > 30 µM (inactive)
CNS(=O)(=O)Nc1nccc(Cc2c(C)c3ccc(Oc4ncccn4)cc3oc2=O)c1F [AVUTOMETINIB] | > 30 µM (inactive) | > 30 µM (inactive) | > 30 µM (inactive) | > 30 µM (inactive) | > 30 µM (inactive) | > 30 µM (inactive) | > 30 µM (inactive) | > 30 µM (inactive) | > 30 µM (inactive) | > 30 µM (inactive)
CCCS(=O)(=O)Nc1ccc(F)c(C(=O)c2c[nH]c3ncc(-c4ccc(Cl)cc4)cc23)c1F [VEMURAFENIB] | > 30 µM (inactive) | > 30 µM (inactive) | > 30 µM (inactive) | > 30 µM (inactive) | > 30 µM (inactive) | > 30 µM (inactive) | > 30 µM (inactive) | > 30 µM (inactive) | > 30 µM (inactive) | > 30 µM (inactive)
CN1CCC(COc2cnc(-c3cccc(Cn4nc(-c5cccc(C#N)c5)ccc4=O)c3)nc2)CC1 [TEPOTINIB] | > 30 µM (inactive) | > 30 µM (inactive) | > 30 µM (inactive) | > 30 µM (inactive) | > 30 µM (inactive) | > 30 µM (inactive) | 0.875 µM (active) | – | > 30 µM (inactive) | > 30 µM (inactive)
COc1cc2nccc(Oc3ccc(NC(=O)Nc4cc(C)on4)c(Cl)c3)c2cc1OC [TIVOZANIB] | > 30 µM (inactive) | > 30 µM (inactive) | > 30 µM (inactive) | > 30 µM (inactive) | > 30 µM (inactive) | > 30 µM (inactive) | > 30 µM (inactive) | > 30 µM (inactive) | > 30 µM (inactive) | –

More lines, main results first:

Kd [1] | Kd [2] | Kd [4] | Kd [5] | Kd [6] | Kd [7] | Kd [8] | Kd [9] | Kd [10] | SMILES | Kd [3]
> 30 µM (inactive) | > 30 µM (inactive) | > 30 µM (inactive) | > 30 µM (inactive) | > 30 µM (inactive) | > 30 µM (inactive) | > 30 µM (inactive) | > 30 µM (inactive) | > 30 µM (inactive) | Cc1cc([C@@H](C)Nc2ccccc2C(=O)O)c2nc(N3CCOCC3)cc(=O)n2c1 [AZD-6482] | > 30 µM (inactive)
> 30 µM (inactive) | > 30 µM (inactive) | > 30 µM (inactive) | > 30 µM (inactive) | > 30 µM (inactive) | > 30 µM (inactive) | > 30 µM (inactive) | > 30 µM (inactive) | > 30 µM (inactive) | O=C(Nc1ccc(-c2ccnc(Nc3ccc(N4CCOCC4)cc3)n2)cc1)C1CCCN1 (stereo not drawn) [XL-019] | > 30 µM (inactive)
> 30 µM (inactive) | > 30 µM (inactive) | > 30 µM (inactive) | – | > 30 µM (inactive) | > 30 µM (inactive) | > 30 µM (inactive) | – | > 30 µM (inactive) | OCCn1cc(-c2cnc3nnn(Cc4ccc5ncccc5c4)c3n2)cn1 [PF-04217903] | > 30 µM (inactive)
